Assay results taken from EP4790066A1, “GLP-1R/GIPR/GCGR TRIPLE AGONIST ANALOGUE AND USE THEREOF” (Shenzhen Bay Laboratory, priority 2023, dated 2025).
One block for each compound: values may come before it. *1 amine or outer side, *2 acyl side, *3 side chain or, on linkers, in order; H or OH if unused. Where a SMILES comes first, the peptide text is derived from it. Bridges are numbered along the chain shown (N, C = ends). [ ]: non-standard residue; d: D form. X1 = O=C(O)CCCCCCCCCCCCCCCCCCC(=O)N[C@@H](CCCCNC(=O)COCCOCCNC(=O)COCCOCCNC(=O)CCC(=O)N(CCNC(=O)C[*:1])CCNC(=O)C[*:2])C(=O)O; αMeL = CC(C)C[C@](C)(N)C(=O)O; Dab = NCC[C@H](N)C(=O)O; Aib = CC(C)(N)C(=O)O

Tests used:
[1] = target: T1, GLP-1R (Homo sapiens, UniProt P43220); assay: CreLuc method (CRE-luciferase reporter), HEK293/pGM-CREB-L-Luc/GLP-1R pool; format: cell-based; settings: 6 h incubation, read-out: EC50 (pM) for each receptor GLP-1R
T1 construct: expressed in transfected cells
T1 sequence (P43220 24-463, species assumed): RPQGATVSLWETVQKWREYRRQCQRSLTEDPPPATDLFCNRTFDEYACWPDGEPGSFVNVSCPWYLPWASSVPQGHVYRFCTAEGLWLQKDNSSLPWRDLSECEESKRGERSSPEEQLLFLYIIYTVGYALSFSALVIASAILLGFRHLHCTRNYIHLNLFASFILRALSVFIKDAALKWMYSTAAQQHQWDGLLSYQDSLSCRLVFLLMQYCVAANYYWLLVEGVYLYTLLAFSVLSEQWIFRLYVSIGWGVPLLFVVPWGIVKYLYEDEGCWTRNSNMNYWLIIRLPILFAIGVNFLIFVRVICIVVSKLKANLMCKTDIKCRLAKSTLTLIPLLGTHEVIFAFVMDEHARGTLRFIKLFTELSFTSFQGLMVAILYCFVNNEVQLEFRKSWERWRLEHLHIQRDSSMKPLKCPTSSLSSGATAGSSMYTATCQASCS
In short: (§1)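 Stable HEK293 pools co-expressing each receptor with a CRE-luciferase reporter were plated at 20,000 cells/well in freestyle medium and treated with compound dilution series for 6 h at 37 °C. Luminescence was read with ONE-GLO to derive EC50.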

[2] = target: T2, GIPR (Homo sapiens, UniProt P48546); assay: CreLuc method (CRE-luciferase reporter), HEK293/pGM-CREB-L-Luc/GIPR pool; format: cell-based; settings: 6 h incubation, read-out: EC50 (pM) for each receptor GIPR
T2 construct: expressed in transfected cells
T2 sequence (P48546 22-466): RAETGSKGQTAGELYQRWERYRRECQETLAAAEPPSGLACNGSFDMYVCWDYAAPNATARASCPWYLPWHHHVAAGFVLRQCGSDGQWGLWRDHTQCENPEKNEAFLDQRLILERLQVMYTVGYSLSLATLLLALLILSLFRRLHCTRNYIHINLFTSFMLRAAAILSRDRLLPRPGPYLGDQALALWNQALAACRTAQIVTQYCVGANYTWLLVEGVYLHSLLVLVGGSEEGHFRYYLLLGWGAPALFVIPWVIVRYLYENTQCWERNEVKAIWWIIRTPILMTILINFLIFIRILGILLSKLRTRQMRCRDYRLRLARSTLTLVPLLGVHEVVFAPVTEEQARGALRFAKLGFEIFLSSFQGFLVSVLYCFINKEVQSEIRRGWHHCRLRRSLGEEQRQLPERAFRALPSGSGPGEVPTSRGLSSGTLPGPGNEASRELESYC
In short: as §1

[3] = target: T3, GCGR (Homo sapiens, UniProt P47871); assay: CreLuc method (CRE-luciferase reporter), 293HEK/pGM-CREB-L-Luc/GCGR pool; format: cell-based; settings: 6 h incubation, read-out: EC50 (pM) for each receptor GCGR
T3 construct: expressed in transfected cells
T3 sequence (P47871 26-477, species assumed): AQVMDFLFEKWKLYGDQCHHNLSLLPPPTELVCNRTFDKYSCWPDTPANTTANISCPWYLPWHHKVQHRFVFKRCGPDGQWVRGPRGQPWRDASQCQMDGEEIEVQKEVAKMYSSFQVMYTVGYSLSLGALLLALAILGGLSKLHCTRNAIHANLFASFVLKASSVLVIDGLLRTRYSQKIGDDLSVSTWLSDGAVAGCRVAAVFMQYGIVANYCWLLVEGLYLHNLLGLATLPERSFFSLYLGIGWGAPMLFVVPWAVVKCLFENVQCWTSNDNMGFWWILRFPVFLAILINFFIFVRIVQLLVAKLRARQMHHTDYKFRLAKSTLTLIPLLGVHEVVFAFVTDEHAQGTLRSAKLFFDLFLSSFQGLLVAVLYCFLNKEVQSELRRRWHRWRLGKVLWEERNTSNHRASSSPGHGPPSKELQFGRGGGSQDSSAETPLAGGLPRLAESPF
In short: as §1

[4] = in vivo; parameters: species or system male SD rats; settings: rat
Procedure: The pharmacokinetic behavior of target peptide derivatives (or polypeptide derivatives) prepared in Example 1 and Example 2, i.e., TG1-TG94 in rodents was tested. The specific steps are as follows:
The target peptide derivatives (TG1-TG94) to be tested were administered to male SD rats via subcutaneous injection (SC, 3 mg/kg; drug vehicle: PBS, concentration: 1.5 mg/mL; administration volume: 2 mL) and intravenous injection (IV, 1 mg/kg; drug vehicle: PBS, concentration: 0.5 mg/mL; administration volume: 2 mL) as a single dose, respectively. Whole blood samples were collected from the jugular vein or other appropriate vein at the following time points after administration: for SC, 15 min, 30 min, 1 h, 2 h, 4 h, 6 h, 8 h, 24 h, 48 h, 72 h, 96 h, 120 h, and 168 h; for IV, 5 min, 15 min, 30 min, 1 h, 2 h, 4 h, 8 h, 24 h, 48 h, 72 h, 96 h, 120 h, and 168 h. 0.2 mL of blood was collected and transferred into a labeled EDTA-K2 anticoagulant tube. The tube was gently inverted to ensure thorough mixing of the anticoagulant (EDTA-K2) with the blood and immediately placed on wet ice. Plasma separation was performed as soon as possible by centrifugation under the following conditions: 4°C, 6800xg, for 6 min. The plasma samples were stored in a refrigerator at no higher than -20°C and used for analysis when needed.
Under the condition of yellow light in an ice-water bath, except for blank samples, 300 µL of precipitant containing an internal standard was added to a 96-well plate containing 20 µL of standard curve sample, quality control sample, or unknown sample; 300 µL of acetonitrile was added to the blank sample. The mixture was vortexed, mixed well, and then centrifuged. 150 µL of the supernatant after centrifugation was transferred to a new 96-well plate, and 150 µL of ultrapure water was added and mixed well. The above samples were subjected to quantitative analysis using LC-MS analysis with XB-C18 (2.1 * 100 mm, 3 µm) chromatography for gradient elution. The mobile phases used were: mobile phase A = 0.1% formic acid-water; mobile phase B = acetonitrile. Phoenix WinNonlin software was used to calculate the pharmacokinetic parameters. […] Table 5A: Pharmacokinetic parameters of target peptide derivatives

- EC50 [1]: 171 pM
- EC50 [2]: 27.6 pM
- EC50 [3]: 172 pM
- AUC(0-inf) ([4]; male, SD, iv, 1 mg/kg): 257 µg·h/mL
- AUC(0-t) ([4]; male, SD, iv, 1 mg/kg): 254 µg·h/mL
- MRT ([4]; male, SD, iv, 1 mg/kg): 21.4 h
- Vd ([4]; male, SD, iv, 1 mg/kg): 0.0891 L/kg
- clearance ([4]; male, SD, iv, 1 mg/kg): 0.0706 mL/min/kg
- half-life ([4]; male, SD, iv, 1 mg/kg): 13.9 h
- bioavailability ([4]; male, SD, sc): 31.8%
- AUC(0-inf) ([4]; male, SD, sc, 3 mg/kg): 245 µg·h/mL
- AUC(0-t) ([4]; male, SD, sc, 3 mg/kg): 243 µg·h/mL
- CL/F ([4]; male, SD, sc, 3 mg/kg): 0.204 mL/min/kg
- Cmax ([4]; male, SD, sc, 3 mg/kg): 4880 ng/mL
- MRT ([4]; male, SD, sc, 3 mg/kg): 32.3 h
- Tmax ([4]; male, SD, sc, 3 mg/kg): 24 h
- half-life ([4]; male, SD, sc, 3 mg/kg): 15.6 h
- AUC0-t /AUC0-inf ([4]; iv, 1 mg/kg): 0.989
- Kel ([4]; iv, 1 mg/kg): 0.0504 h⁻¹
- AUC0-t /AUC0-inf ([4]; sc, 3 mg/kg): 0.993
- Vz/F ([4]; sc, 3 mg/kg): 0.276 L/kg
Structure (SMILES): CC[C@H](C)[C@H](NC(=O)[C@H](Cc1ccccc1)NC(=O)[C@H](C)NC(=O)[C@@H]1CCCCNC(=O)CN(C(=O)CCCNC(=O)COCCOCCNC(=O)COCCOCCNC(=O)CC[C@H](NC(=O)CCCCCCCCCCCCCCCCCCC(=O)O)C(=O)O)CC(=O)NCCCC[C@H](NC(=O)[C@H](CCCCN)NC(=O)[C@H](CC(=O)O)NC(=O)[C@H](CC(C)C)NC(=O)[C@](C)(CC(C)C)NC(=O)[C@@H](NC(=O)[C@H](CO)NC(=O)[C@H](Cc2ccc(O)cc2)NC(=O)[C@H](CC(=O)O)NC(=O)[C@H](CO)NC(=O)[C@@H](NC(=O)[C@H](Cc2ccccc2F)NC(=O)[C@@H](NC(=O)CNC(=O)[C@H](CCC(N)=O)NC(=O)C(C)(C)NC(=O)[C@@H](N)Cc2ccc(O)cc2)[C@@H](C)O)[C@@H](C)O)[C@@H](C)CC)C(=O)N[C@@H](C)C(=O)N[C@@H](CCC(N)=O)C(=O)N1)C(=O)N[C@@H](CCC(=O)O)C(=O)N[C@@H](Cc1ccc(O)cc1)C(=O)N[C@@H](CC(C)C)C(=O)N[C@@H](CC(C)C)C(=O)N[C@@H](C)C(=O)NCC(=O)NCC(=O)N1CCC[C@H]1C(=O)N[C@@H](CO)C(=O)N[C@@H](CO)C(=O)NCC(=O)N[C@@H](C)C(=O)N1CCC[C@H]1C(=O)N1CCC[C@H]1C(=O)N1CCC[C@H]1C(=O)N[C@@H](CO)C(N)=O [TG87]

Structure (SMILES): CC[C@H](C)[C@@H]1NC(=O)[C@H](Cc2ccccc2)NC(=O)[C@@H](NC(=O)C(C)(C)NC(=O)[C@H](CCC(N)=O)NC(=O)[C@H](C)NC(=O)[C@H](CCCCNC(C)=O)NC(=O)[C@H](CCCCN)NC(=O)[C@H](CC(=O)O)NC(=O)[C@H](CC(C)C)NC(=O)[C@](C)(CC(C)C)NC(=O)[C@@H](NC(=O)[C@H](CO)NC(=O)[C@H](Cc2ccc(O)cc2)NC(=O)[C@H](CC(=O)O)NC(=O)[C@H](CO)NC(=O)[C@@H](NC(=O)[C@H](Cc2ccccc2)NC(=O)[C@@H](NC(=O)CNC(=O)[C@H](CCNC(C)=O)NC(=O)C(C)(C)NC(=O)[C@@H](N)Cc2ccc(O)cc2)[C@@H](C)O)[C@@H](C)O)[C@@H](C)CC)CSCC(=O)NCCN(C(=O)CCC(=O)NCCOCCOCC(=O)NCCOCCOCC(=O)NCCCC[C@H](NC(=O)CCCCCCCCCCCCCCCCCCC(=O)O)C(=O)O)CCNC(=O)CSC[C@@H](C(=O)NCC(=O)NCC(=O)N2CCC[C@H]2C(=O)N[C@@H](CO)C(=O)N[C@@H](CO)C(=O)NCC(=O)N[C@@H](C)C(=O)N2CCC[C@H]2C(=O)N2CCC[C@H]2C(=O)N2CCC[C@H]2C(=O)N[C@@H](CO)C(N)=O)NC(=O)[C@H](CC(C)C)NC(=O)[C@H](CC(C)C)NC(=O)[C@H](Cc2ccc(O)cc2)NC(=O)[C@H](CCC(=O)O)NC1=O [TG41] (H-Y[Aib][Dab](Ac)GTFTSDYSI[αMeL]LDKK(Ac)AQ[Aib]CFIEYLLCGGPSSGAPPPS-NH2; linker 21-28 via X1)
- EC50 [1]: 282 pM
- EC50 [2]: 19.6 pM
- EC50 [3]: 76.3 pM

Structure (SMILES): CC[C@H](C)[C@@H]1NC(=O)[C@H](Cc2ccccc2)NC(=O)[C@@H](NC(=O)[C@H](CCC(N)=O)NC(=O)[C@H](CCC(N)=O)NC(=O)[C@H](C)NC(=O)[C@H](CCCCNC(C)=O)NC(=O)[C@H](CCCCN)NC(=O)[C@H](CC(=O)O)NC(=O)[C@H](CC(C)C)NC(=O)[C@](C)(CC(C)C)NC(=O)[C@@H](NC(=O)[C@H](CO)NC(=O)[C@H](Cc2ccc(O)cc2)NC(=O)[C@H](CC(=O)O)NC(=O)[C@H](CO)NC(=O)[C@@H](NC(=O)[C@H](Cc2ccccc2)NC(=O)[C@@H](NC(=O)CNC(=O)[C@H](CCC(N)=O)NC(=O)C(C)(C)NC(=O)[C@@H](N)Cc2ccc(O)cc2)[C@@H](C)O)[C@@H](C)O)[C@@H](C)CC)CSCC(=O)NCCN(C(=O)CCC(=O)NCCOCCOCC(=O)NCCOCCOCC(=O)NCCCC[C@H](NC(=O)CCCCCCCCCCCCCCCCCCC(=O)O)C(=O)O)CCNC(=O)CSC[C@@H](C(=O)NCC(=O)NCC(=O)N2CCC[C@H]2C(=O)N[C@@H](CO)C(=O)N[C@@H](CO)C(=O)NCC(=O)N[C@@H](C)C(=O)N2CCC[C@H]2C(=O)N2CCC[C@H]2C(=O)N2CCC[C@H]2C(=O)N[C@@H](CO)C(N)=O)NC(=O)[C@H](CC(C)C)NC(=O)[C@H](CC(C)C)NC(=O)[C@H](Cc2ccc(O)cc2)NC(=O)[C@H](CCC(=O)O)NC1=O [TG33] (H-Y[Aib]QGTFTSDYSI[αMeL]LDKK(Ac)AQQCFIEYLLCGGPSSGAPPPS-NH2; linker 21-28 via X1)
- EC50 [1]: 23.7 pM
- EC50 [2]: 7.6 pM
- EC50 [3]: 96.8 pM

Structure (SMILES): CC[C@H](C)[C@@H]1NC(=O)[C@H](Cc2ccccc2)NC(=O)[C@@H](NC(=O)C(C)(C)NC(=O)[C@H](CCC(N)=O)NC(=O)[C@H](C)NC(=O)[C@H](CCCCNC(C)=O)NC(=O)[C@H](CCCCN)NC(=O)[C@H](CC(=O)O)NC(=O)[C@H](CC(C)C)NC(=O)[C@](C)(CC(C)C)NC(=O)[C@@H](NC(=O)[C@H](CO)NC(=O)[C@H](Cc2ccc(O)cc2)NC(=O)[C@H](CC(=O)O)NC(=O)[C@H](CO)NC(=O)[C@@H](NC(=O)[C@H](Cc2ccccc2)NC(=O)[C@@H](NC(=O)CNC(=O)[C@H](Cc2c[nH]cn2)NC(=O)C(C)(C)NC(=O)[C@@H](N)Cc2ccc(O)cc2)[C@@H](C)O)[C@@H](C)O)[C@@H](C)CC)CSCC(=O)NCCN(C(=O)CCC(=O)NCCOCCOCC(=O)NCCOCCOCC(=O)NCCCC[C@H](NC(=O)CCCCCCCCCCCCCCCCCCC(=O)O)C(=O)O)CCNC(=O)CSC[C@@H](C(=O)NCC(=O)NCC(=O)N2CCC[C@H]2C(=O)N[C@@H](CO)C(=O)N[C@@H](CO)C(=O)NCC(=O)N[C@@H](C)C(=O)N2CCC[C@H]2C(=O)N2CCC[C@H]2C(=O)N2CCC[C@H]2C(=O)N[C@@H](CO)C(N)=O)NC(=O)[C@H](CC(C)C)NC(=O)[C@H](CC(C)C)NC(=O)[C@H](Cc2ccc(O)cc2)NC(=O)[C@H](CCC(=O)O)NC1=O [TG42]
- EC50 [1]: 477 pM
- EC50 [2]: 21.3 pM
- EC50 [3]: 99.4 pM
